According to patent US20260248794A1, “METHODS AND MATERIALS FOR PROMOTING BONE GROWTH” (Mayo Foundation for Medical Education and Research, priority 2022, published 2026):
“And” between values parts separate entries of the source, which are not always exact repeats. Equal entries are not always repeated. “Also recorded” adds a separate entry of the source.

Key:
H3K27me3 in MC3T3 cells = experiment: Western blotting for H3K27me3 in MC3T3 cells treated with EED inhibitor; type: cell-based, murine; settings: A-395 at 0.02-10 mM as printed, FIG. 5A
Method: (§1) MC3T3 sc4 murine calvarial osteoblasts were purchased from American Type Culture Collection and maintained in α-minimal essential medium without ascorbic acid (Gibco) containing 10% fetal bovine serum (Atlanta Biologicals), 100 units/mL penicillin, and 100 µg/mL streptomycin (Gibco).
MC3T3 cells (4,000 cells/cm^2) were plated in 6-well plates in maintenance medium. […] Cells were lysed in radioimmunoprecipitation buffer (150 mm NaCl, 50 mm Tris, pH 7.4, 1% sodium deoxycholate, 0.1% sodium dodecyl sulfate, 1% Triton X-100) supplemented with protease inhibitor mixture (Sigma) and phenylmethylsulfonyl fluoride (Sigma). Lysates were cleared by centrifugation. Protein concentrations were determined by the DC Protein Assay (Bio-Rad). Proteins were resolved by SDS-PAGE and transferred to polyvinylidene difluoride membranes. After blocking in 5% nonfat dry milk for 45 minutes at room temperature, primary antibodies were added overnight at 4° C., followed by secondary antibodies for 1 hour at room temperature. Proteins were visualized using an ECL Prime detection kit.

OI mice = experiment: μCT analysis of femurs of OI mice treated with A-395 for 5 weeks; type: in vivo
Method: (§2) Five-week-old OI mice (mice harboring the Col1a2 c.2098G>T p.Gly700Cys allele […]) were subcutaneously injected with DMSO (vehicle) or EED inhibitor A-395 (Sigma) at concentrations of either 100 mg/kg or 300 mg/kg twice weekly for 5 weeks.
Femurs of injected mice were scanned by μCT Skyscan 1076 (Brunker) at the maximal potencial 60 kV and 167 μA with 0.25 mm thick aluminum filter and at the voxel resolution of 9 μm. The μCT scans were performed over 360° of total rotation with each angular rotation step of 0.7°. […] The trabecular region of interest were selected with reference to the growth plate. The 2D images were created using CTAn siftware package (Skyscan). The 3D μCT models of each femur were created using a 3D reconstruction software package (Skyscan).
(§3) 5-week-old OI mice were treated twice weekly with a subcutaneous injection of either vehicle (DMSO) or EED inhibitor A-395 had concentrations of 300 mg/kg or 100 mg/kg. These mice were treated for five weeks and then analyzed for changes in bone structure.

MC3T3 cells = experiment: Osteogenic differentiation of MC3T3 cells (RT-qPCR of osteogenic genes, alizarin red staining); type: cell-based, murine; settings: differentiating MC3T3 cells; FIG. 5B-5F
Method: as §1
For osteogenic differentiation, MC3T3s were seeded in respective maintenance medium at a density of 10,000 cells/cm^2. Next day, osteogenic medium supplemented with vehicle, GSK126 (Xcess Biociences Inc.) or A-395 (Sigma) was added to the cells. Osteogenic medium for MC3T3 cells consisted of 50 μg/mL ascorbic acid (Sigma) and 4 mm β-glycerol phosphate (Sigma). Three days later, old medium was replaced with a fresh batch of osteogenic medium supplemented with vehicle, GSK126, or A-395. On day 6 of differentiation, fresh osteogenic medium without supplements was added and replenished every 2 to 3 days. On day 14, cells were fixed in 10% neutral buffered formalin and stained with 2% alizarin red to visualize calcium deposition.
Total RNA was isolated using the Direct-zol™ RNA kit (Zymo Research) and quantified using the NanoDrop 2000 spectrophotometer (Thermo Fischer Scientific). RNA was then reverse transcribed into cDNA by the SuperScript III First-Strand Synthesis System (Invitrogen). Transcript levels were then measured using the 2^ΔΔct method and normalized GAPDH (set at 100), a housekeeping gene.

[1] = Weight, femur length and toxicity in OI mice treated with A-395 for 5 weeks; type: in vivo; settings: for Weigh at 3 weeks: 3 weeks of age, prior to treatment; for Weight at 5 weeks: start of treatment; for Weight at 10 weeks: individual OI mice
Method: as §2, §3
OI mice were weighed at 3 weeks of age prior to treatment, at the start of treatment at 5 weeks, and after 5 weeks of treatment with vehicle (Veh), 300 mg/kg (300), or 100 mg/kg (100) of A-395.

G610C mice [2] = experiment: μCT analysis of G610C mice treated with A-395 for 3 weeks; type: in vivo; settings: male G610C mice
Method: (§4) G610C mice were treat with the EED inhibitor A-395. […] The dose of A-395 was lowered to see if that improved the health of the mice and bone formation. Three 5-week-old male G610C mice were treated with DMSO control or either 50 mg/kg or 100 mg/kg A-395 twice a week by subcutaneous injection for 3 weeks.

G610C mice [3] = experiment: Three-point bending of G610C mice treated with A-395 for 3 weeks; type: in vivo; settings: male G610C mice
Source text: Three-point bend fixture was mounted on a servohydrauilic mechanical testing frame (#312, MTS Systems) instrumented with a 100-N capacity load cell (#3397-25, Leebow Products). Femurs were be mounted on supports spanning 8 mm. Point loading was applied to the femur mid-shaft allowing the bones to flex about an axis aligned with the medial-lateral line. Loading was applied under displacement control at a rate of 20 mm/minute until fracture. Force and displacement data were be sampled at 256 Hz. Peak load and peak displacement was be quantified. The stiffness was be calculated from the slope of the linear region of the force displacement curve.
as §4

[4] = 100 mg/kg, vs vehicle, 100 mg/kg
[5] = 300 mg/kg, vs vehicle, 300 mg/kg
[6] = individual OI mice of the 100 mg/kg group, in g (unit assumed)
[7] = individual OI mice of the 300 mg/kg group, in g (unit assumed)

CN(C)C1CN(C2CCc3cccc(F)c32)CC1c1ccc(N2CCN(S(C)(=O)=O)CC2)cc1 (centres unmarked) [A-395, 1-(7-fluoro-2,3-dihydro-1H-inden-1-yl)-N,N-dimethyl-4-[4-(4-methylsulfonylpiperazin-1-yl)phenyl]pyrrolidin-3-amine]
H3K27me3 (western blotting) (H3K27me3 in MC3T3 cells): reduced H3K27me3 in a concentration-dependent manner
bone surface density (OI mice; 100 mg/kg): increase
bone surface to volume ratio (OI mice; 100 mg/kg): decrease
intersection surface (OI mice; 100 mg/kg): no change
trabecular number (OI mice; 100 mg/kg): increase
trabecular pattern (OI mice; 100 mg/kg): decrease
trabecular thickness (OI mice; 100 mg/kg): increase
bone formation within the femurs (μCT) (OI mice; 100 mg/kg SC twice weekly): robust bone formation
bone surface (OI mice; 100 mg/kg, vs vehicle): increase
trabecular bone (OI mice; 100 mg/kg, vs vehicle): increase in trabecular bone
bone volume (OI mice; [4]): increased
percent bone per volume (OI mice; [4]): increased
tissue surface (OI mice; [4]): increased
tissue volume (OI mice; [4]): increased
bone surface to volume ratio (OI mice; 300 mg/kg): unchanged
intersection surface (OI mice; 300 mg/kg): down
trabecular number (OI mice; 300 mg/kg): decrease
trabecular pattern (OI mice; 300 mg/kg): slight decrease
trabecular thickness (OI mice; 300 mg/kg): slight decrease
bone mineralization (μCT) (OI mice; 300 mg/kg SC twice weekly): loss of bone mineralization
bone density (OI mice; 300 mg/kg, FIG. 11A): down
trabecular bone (OI mice; 300 mg/kg, vs vehicle): loss of trabecular bone
bone surface (OI mice; [5]): decrease and down
bone volume (OI mice; [5]): decreased
percent bone per volume (OI mice; [5]): decreased
tissue volume (OI mice; [5]): increased
osteogenic differentiation (osteogenic genes, alizarin red staining) (MC3T3 cells): stimulates osteogenesis; also recorded: more potent at stimulating osteogenic differentiation
toxicity to the mouse ([1]; OI mice, 300 mg/kg SC twice weekly, 5 weeks): toxic
weight (change vs vehicle) ([1]; OI mice, 300 mg/kg or 100 mg/kg, after 5 weeks of treatment, vs vehicle): no significant changes
Weigh at 3 weeks [1, 6]: 10.5 and 10.2 and 9.6
Weight at 5 weeks [1, 6]: 21.3 and 21.6 and 19.9
Weigh at 3 weeks [1, 7]: 11.1 and 11.9 and 14.0
Weight at 5 weeks [1, 7]: 20.9 and 22.6 and 24.0
Weight at 10 weeks ([1]; 100 mg/kg, after 5 weeks of treatment, 100 mg/kg): 26.5 (2×) and 28.0
Weight at 10 weeks ([1]; 300 mg/kg, after 5 weeks of treatment, 300 mg/kg, in g (unit assumed)): 26.6 and 27.8 and 29.0
bone formation (μCT) (G610C mice [2]; 50 mg/kg SC twice a week): increase in bone formation
bone formation (μCT) (G610C mice [2]; 100 mg/kg SC twice a week): increase in bone formation
bone (μCT) vs controls (G610C mice [2]; 300 mg/kg SQ twice a week): less bone than controls
health of treated mice at end of protocol (G610C mice [2]; 300 mg/kg SQ twice a week): losing weight and appeared sickly
stiffness (three-point bending) (G610C mice [3]; 50 mg/kg SC twice a week): improved stiffness
stiffness (three-point bending) (G610C mice [3]; 100 mg/kg SC twice a week): improved stiffness
